According to US20150079000A1, “Labelled Quinoxaline Derivatives as Multimodal Radiopharmaceuticals and Their Precursors” (INSTITUT NATIONAL DE LA SANTET DE LA RECHERCHE MEDICALE, priority 2012, published 2015):

Legend:
[1] = test system: B16 murine melanoma tumours; test: Ex vivo biodistribution study for compound [125I](1); type: in vivo, C57BL/6J mice
Protocol: Twenty four B16BL6 primary melanoma bearing mice were intravenously injected with 2.2 MBq of [^1251]1 and sacrificed 1 h, 3 h, 6 h, 24 h, 72 h and 10 days after tracer injection (n=4/time point). Tumours and major organs and tissues were promptly excised, harvested, weighted and their radioactivity counted using a calibrated γ-counter with a […] energy window. After radioactive decay correction, results were expressed as percentage of injected dose per gram of tissue (% ID/g).

[2] = Metabolism of compound [125I](1); type: in vivo, mice
Protocol: 24 primary melanoma bearing mice were intravenously injected with 2.2 MBq of [^1251](1) and sacrificed 1 h, 3 h, 6 h, 24 h, 72 h and 10 days after tracer injection. To determine the metabolic stability of [^1251](1), blood, tumour, eyes, liver, kidney and urine samples were collected at each time point […]. Faeces were collected between 0-24 h and 24-48 h. Blood was immediately diluted in 5 mL of methanol/NH4OH 99.8:0.2 and centrifuged for 5 min at 3,000 rpm. Tumour, eyes, liver, kidneys and faeces were suspended in 5 mL of methanol/NH4OH 99.8:0.2, homogenized using GentleMACS™ dissociator (Miltenyi Biotec, Bergisch Gladbach, Germany) and centrifuged for 5 min at 3,000 rpm (repeated 2 times). Urines were analysed without any treatment. The extraction efficiency was determined by measuring the radioactivity of supernatants and precipitates. Supernatants were passed through a 0.22 μm Millipore filter and then concentrated to a volume between 200 and 500 μL before injection (duplicate) onto the analytical HPLC(C18 column; solvent A: H2O (0.2% NH4OH); solvent B: MeOH (0.2% NH4OH); Gradient elution: 0-5 min: 90 to 70% of A (Q=0.5 mL·min^−1); 5-30 min: 70 to 20% of A (Q=0.9 mL·min^−1); 30-32 min: 10% of A (Q=0.9 mL·min^−1)).

Structure (SMILES): CCN(CCNC(=O)c1cnc2cc([125I])ccc2n1)CCOCCOCCOCCF [[^125I](1)]
- % ID/g Small intestine ([1]; 24 h p.i.): 0.12 ± 0.03 % ID/g
- % ID/g Spleen ([1]; 24 h p.i.): 0.06 ± 0.01 % ID/g
- % ID/g Stomach ([1]; 24 h p.i.): 0.54 ± 0.25 % ID/g
- % ID/g Testes ([1]; 24 h p.i.): 0.03 ± 0.01 % ID/g
- % ID/g Adipose ([1]; 72 h p.i.): 0.02 ± 0.00 % ID/g
- % ID/g Bones ([1]; 72 h p.i.): 0.02 ± 0.01 % ID/g
- % ID/g Brain ([1]; 72 h p.i.): 0.01 ± 0.00 % ID/g
- % ID/g Ceacum ([1]; 72 h p.i.): 0.33 ± 0.29 % ID/g
- % ID/g Colon ([1]; 72 h p.i.): 0.25 ± 0.10 % ID/g
- % ID/g Heart ([1]; 72 h p.i.): 0.08 ± 0.02 % ID/g
- % ID/g Kidney ([1]; 72 h p.i.): 0.24 ± 0.04 % ID/g
- % ID/g Liver ([1]; 72 h p.i.): 0.08 ± 0.00 % ID/g
- % ID/g Lung ([1]; 72 h p.i.): 0.05 ± 0.01 % ID/g
- % ID/g Muscle ([1]; 72 h p.i.): 0.02 ± 0.00 % ID/g
- % ID/g Pancreas ([1]; 72 h p.i.): 0.03 ± 0.01 % ID/g
- % ID/g Skin ([1]; 72 h p.i.): 0.50 ± 0.26 % ID/g
- % ID/g Small intestine ([1]; 72 h p.i.): 0.07 ± 0.03 % ID/g
- % ID/g Spleen ([1]; 72 h p.i.): 0.52 ± 0.96 % ID/g
- % ID/g Stomach ([1]; 72 h p.i.): 0.16 ± 0.05 % ID/g
- % ID/g Testes ([1]; 72 h p.i.): 0.02 ± 0.00 % ID/g
- % ID/g Adipose ([1]; 10 d p.i.): 0.01 ± 0.01 % ID/g
- % ID/g Bones ([1]; 10 d p.i.): 0.01 ± 0.01 % ID/g
- % ID/g Brain ([1]; 10 d p.i.): 0.00 ± 0.00 % ID/g
- % ID/g Ceacum ([1]; 10 d p.i.): 0.02 ± 0.02 % ID/g
- % ID/g Colon ([1]; 10 d p.i.): 0.02 ± 0.01 % ID/g
- % ID/g Heart ([1]; 10 d p.i.): 0.03 ± 0.01 % ID/g
- % ID/g Kidney ([1]; 10 d p.i.): 0.04 ± 0.03 % ID/g
- % ID/g Liver ([1]; 10 d p.i.): 0.01 ± 0.00 % ID/g
- % ID/g Lung ([1]; 10 d p.i.): 0.01 ± 0.01 % ID/g
- % ID/g Muscle ([1]; 10 d p.i.): 0.01 ± 0.06 % ID/g
- % ID/g Pancreas ([1]; 10 d p.i.): 0.02 ± 0.03 % ID/g
- % ID/g Skin ([1]; 10 d p.i.): 0.05 ± 0.06 % ID/g
- % ID/g Small intestine ([1]; 10 d p.i.): 0.01 ± 0.00 % ID/g
- % ID/g Spleen ([1]; 10 d p.i.): 0.23 ± 0.41 % ID/g
- % ID/g Stomach ([1]; 10 d p.i.): 0.03 ± 0.01 % ID/g
- % ID/g Testes ([1]; 10 d p.i.): 0.00 ± 0.00 % ID/g
- % of radioactivity ([2]; Blood, 1 h after [125I](1) injection): 2.0 ± 2.8%
- % of radioactivity ([2]; Blood, 3 h after [125I](1) injection): 0.0 ± 0.0%
- % of radioactivity ([2]; Blood, 6 h after [125I](1) injection): 3.5 ± 4.9%
- % of radioactivity ([2]; Eyes, 1 h after [125I](1) injection): 90.5 ± 0.7%
- % of radioactivity ([2]; Eyes, 3 h after [125I](1) injection): 94.5 ± 2.1%
- % of radioactivity ([2]; Eyes, 6 h after [125I](1) injection): 96.0 ± 5.7%
- % of radioactivity ([2]; Eyes, 24 h after [125I](1) injection): 90.0 ± 2.8%
- % of radioactivity ([2]; Eyes, 72 h after [125I](1) injection): 96.5 ± 4.9%
- % of radioactivity ([2]; Eyes, 10 d after [125I](1) injection): 100.0 ± 0.0%
- % of radioactivity ([2]; Feces, (grid: 3 h; faeces collected 24-48 h)): 2.5 ± 0.7%
- % of radioactivity ([2]; Feces, first value column (grid: 1 h; faeces collected 0-24 h)): 5.0 ± 0.0%
- % of radioactivity ([2]; Kidney, 1 h after [125I](1) injection): 12.5 ± 2.1%
- % of radioactivity ([2]; Kidney, 3 h after [125I](1) injection): 6.1 ± 2.9%
- % of radioactivity ([2]; Kidney, 6 h after [125I](1) injection): 0.0 ± 0.0%
- % of radioactivity ([2]; Liver, 1 h after [125I](1) injection): 27.5 ± 0.7%
- % of radioactivity ([2]; Liver, 3 h after [125I](1) injection): 24.0 ± 4.2%
- % of radioactivity ([2]; Liver, 6 h after [125I](1) injection): 8.5 ± 0.7%
- % of radioactivity ([2]; Liver, 24 h after [125I](1) injection): 0.0 ± 0.0%
- % of radioactivity ([2]; Tumour, 1 h after [125I](1) injection): 87.0 ± 1.4%
- % of radioactivity ([2]; Tumour, 3 h after [125I](1) injection): 81.0 ± 1.4%
- % of radioactivity ([2]; Tumour, 6 h after [125I](1) injection): 77.0 ± 0.0%
- % of radioactivity ([2]; Tumour, 24 h after [125I](1) injection): 92.5 ± 9.2%
- % of radioactivity ([2]; Tumour, 72 h after [125I](1) injection): 91.5 ± 3.5%
- % of radioactivity ([2]; Tumour, 10 d after [125I](1) injection): 100.0 ± 0.0%
- % of radioactivity ([2]; Urine, 1 h after [125I](1) injection): 12.6 ± 0.5%
- % of radioactivity ([2]; Urine, 3 h after [125I](1) injection): 0.0 ± 0.0%
- % of radioactivity ([2]; Urine, 6 h after [125I](1) injection): 0.0 ± 0.0%
- % of radioactivity ([2]; Urine, 24 h after [125I](1) injection): 0.0 ± 0.0%
- % of radioactivity ([2]; Urine, 72 h after [125I](1) injection): 0.0 ± 0.0%
